Data taken from ChEMBL document CHEMBL3885861, “Open TG-GATES”.

Organism: Rattus norvegicus
Experiment: Open TG-GATES - Regimen: Single
Format: toxicity, organism-based, Sprague-Dawley
Parameters: regimen Single, gender Male, age 6 weeks
Settings: in vivo, po, route gavage; for gamma-GTP / ALP / ALT / AST / BUN / CRE / Ca / Cl / DBIL / GLC / IP / LDH / Na / PL / RALB / TBIL / TC / TG / TP: tissue Plasma; for APTT / Bas / Eos / Fbg / Hb / Ht / Lym / MCH / MCHC / MCV / Mono / Neu / PT / Plat / RBC / Ret / WBC: tissue Blood; for KIDNEY_L / KIDNEY_R / KIDNEY_TOTAL: tissue Kidney; for LIVER: tissue Liver

## CC(=O)N1CCN(c2ccc(OCC3COC(Cn4ccnc4)(c4ccc(Cl)cc4Cl)O3)cc2)CC1 (stereo not given) [KETOCONAZOLE]
0 mg/kg, 24 h, dose level Control
  gamma-GTP: 1.2 IU/L
10 mg/kg, 3 h, dose level Low
  TERMINAL_BW: 205.2 g
  APTT: 20.8 s
  Bas: 0%
  Eos: 0.8%
  Fbg: 286.4 mg/dL
  Hb: 12.9 g/dL
  Ht: 38.9%
  Lym: 79.2%
  MCH: 21.8 pg
  MCHC: 33.1%
  MCV: 66.1 fL
  Mono: 2%
  Neu: 17.2%
  PT: 16.9 s
  Plat: 122.3 x10_4/uL
  RBC: 590.2 x10_4/ul
  Ret: 8.5%
  WBC: 81.1 x10_2/uL
  KIDNEY_L: 1 g
  KIDNEY_R: 1 g
  KIDNEY_TOTAL: 2 g
  LIVER: 9.7 g
  ALP: 1809.4 IU/L
  ALT: 44.2 IU/L
  AST: 74.2 IU/L
  BUN: 12.6 mg/dL
  CRE: 0.2 mg/dL
  Ca: 10.8 mg/dL
  Cl: 105.4 meq/L
  DBIL: 0 mg/dL
  GLC: 183.6 mg/dL
  IP: 7.7 mg/dL
  LDH: 214.6 IU/L
  Na: 140.8 meq/L
  PL: 138.4 mg/dL
  RALB: 2.9 g/dL
  TBIL: 0.014 mg/dL
  TC: 76.6 mg/dL
  TG: 69.8 mg/dL
  TP: 5.3 g/dL
  gamma-GTP: 1.2 IU/L
10 mg/kg, 6 h, dose level Low
  TERMINAL_BW: 202.4 g
  APTT: 20.6 s
  Bas: 0%
  Eos: 0.6%
  Fbg: 294 mg/dL
  Hb: 13.2 g/dL
  Ht: 39.7%
  Lym: 78.8%
  MCH: 21 pg
  MCHC: 33.2%
  MCV: 63.2 fL
  Mono: 1.4%
  Neu: 18.2%
  PT: 16.5 s
  Plat: 134.3 x10_4/uL
  RBC: 628.6 x10_4/ul
  Ret: 8.4%
  WBC: 66.2 x10_2/uL
  KIDNEY_L: 0.9 g
  KIDNEY_R: 0.9 g
  KIDNEY_TOTAL: 1.8 g
  LIVER: 8.6 g
  ALP: 1453.2 IU/L
  AST: 72.2 IU/L
  BUN: 11 mg/dL
  CRE: 0.2 mg/dL
  Ca: 11 mg/dL
  Cl: 105.8 meq/L
  DBIL: 0.004 mg/dL
  GLC: 172.8 mg/dL
  IP: 9.2 mg/dL
  LDH: 238.6 IU/L
  Na: 142.2 meq/L
  PL: 146.6 mg/dL
  RALB: 3.1 g/dL
  TBIL: 0.028 mg/dL
  TC: 81.4 mg/dL
  TG: 57 mg/dL
  TP: 5.5 g/dL
  gamma-GTP: 1 IU/L
10 mg/kg, 9 h, dose level Low
  TERMINAL_BW: 202 g
  APTT: 21.2 s
  Bas: 0%
  Eos: 0.6%
  Fbg: 303 mg/dL
  Hb: 12.8 g/dL
  Ht: 38.6%
  Lym: 79.8%
  MCH: 20.9 pg
  MCHC: 33.3%
  MCV: 62.8 fL
  Mono: 2%
  Neu: 17%
  PT: 16.2 s
  Plat: 120.8 x10_4/uL
  RBC: 614.6 x10_4/ul
  Ret: 8.5%
  WBC: 64.8 x10_2/uL
  KIDNEY_L: 1 g
  KIDNEY_R: 1 g
  KIDNEY_TOTAL: 1.9 g
  LIVER: 8.9 g
  ALP: 1290.2 IU/L
  ALT: 33 IU/L
  AST: 63.8 IU/L
  BUN: 11.2 mg/dL
  CRE: 0.1 mg/dL
  Ca: 10.6 mg/dL
  Cl: 104.8 meq/L
  DBIL: 0 mg/dL
  GLC: 182.4 mg/dL
  IP: 9.8 mg/dL
  LDH: 211.4 IU/L
  Na: 140.6 meq/L
  PL: 137.8 mg/dL
  RALB: 3.1 g/dL
  TBIL: 0.018 mg/dL
  TC: 80.2 mg/dL
  TG: 52.8 mg/dL
  TP: 5.6 g/dL
  gamma-GTP: 1.2 IU/L
10 mg/kg, 24 h, dose level Low
  TERMINAL_BW: 212.3 g
  APTT: 20.9 s
  Bas: 0%
  Eos: 1%
  Fbg: 300 mg/dL
  Hb: 13 g/dL
  Ht: 38.5%
  Lym: 81%
  MCH: 21.3 pg
  MCV: 63.4 fL
  Mono: 1.8%
  Neu: 15.6%
  PT: 16.5 s
  Plat: 129.6 x10_4/uL
  RBC: 608 x10_4/ul
  Ret: 7.8%
  WBC: 74 x10_2/uL
  KIDNEY_L: 0.9 g
  KIDNEY_R: 0.9 g
  KIDNEY_TOTAL: 1.9 g
  LIVER: 10 g
  ALP: 1553.2 IU/L
  ALT: 44.2 IU/L
  AST: 71 IU/L
  BUN: 16 mg/dL
  CRE: 0.2 mg/dL
  Ca: 10.7 mg/dL
  Cl: 107.2 meq/L
  DBIL: 0 mg/dL
  GLC: 176.6 mg/dL
  IP: 7.1 mg/dL
  LDH: 209 IU/L
  Na: 141.6 meq/L
  PL: 140 mg/dL
  RALB: 3.1 g/dL
  TBIL: 0.006 mg/dL
  TC: 74 mg/dL
